From PMC6222891, “Bioinspired Honokiol Analogs and Their Evaluation for Activity on the Norepinephrine Transporter” (Molecules : A Journal of Synthetic Chemistry and Natural …, 2018) come the findings set out here.

This test deals with T1, human norepinephrine transporter (hNET) (Homo sapiens, UniProt P23975).
T1 construct: expressed in transfected cells
T1 sequence (P23975 whole entry): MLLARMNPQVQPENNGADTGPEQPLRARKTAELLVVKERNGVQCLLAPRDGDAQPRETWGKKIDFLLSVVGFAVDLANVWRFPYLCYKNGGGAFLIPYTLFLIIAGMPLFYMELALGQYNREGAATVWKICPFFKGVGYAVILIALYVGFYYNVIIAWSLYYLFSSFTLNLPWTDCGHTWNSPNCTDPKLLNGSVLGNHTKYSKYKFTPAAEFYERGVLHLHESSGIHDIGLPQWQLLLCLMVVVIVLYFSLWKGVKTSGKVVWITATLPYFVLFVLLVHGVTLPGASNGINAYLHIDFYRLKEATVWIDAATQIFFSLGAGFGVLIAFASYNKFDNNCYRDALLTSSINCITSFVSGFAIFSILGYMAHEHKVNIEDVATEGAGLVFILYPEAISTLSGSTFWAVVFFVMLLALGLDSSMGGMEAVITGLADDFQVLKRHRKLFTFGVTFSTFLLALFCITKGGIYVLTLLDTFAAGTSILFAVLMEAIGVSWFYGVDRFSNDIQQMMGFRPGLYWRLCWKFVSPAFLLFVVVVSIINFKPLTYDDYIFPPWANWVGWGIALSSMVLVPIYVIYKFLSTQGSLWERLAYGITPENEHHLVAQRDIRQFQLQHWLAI
In words: fluorescent neurotransmitter transporter uptake assay (plate reader). Particulars: HEK-hNET-hVMAT2-mCherry cells; compounds selected for follow-up assays. In kind it is cell-based. The protocol: Cell line: All screening was done in a line of human embryonic kidney cells stably expressing the human norepinephrine transporter and the vesicular monoamine transporter 2 (HEK-hNET- -hVMAT2-mCherry). Human VMAT2 expression, in addition to hNET, more fully recapitulates a neuronal phenotype in cell culture. Cells were imaged and fully characterized for functionality (Figure 1). […] Screening: Synthesized compounds were tested for interaction with NET via a three-step process. First, all compounds were tested using a commercially available fluorescent assay (neurotransmitter transport uptake kit, Molecular Devices, San Jose, CA, USA) for the assessment of plasmalemmal monoamine transport ability. Cells were plated in poly-D-lysine (PDL)-coated 96-well plates (Corning Inc., Corning, NY, USA) to 100% confluence. The following day, cell media (DMEM, 10% fetal bovine serum, 1% penicillin/streptomycin) was removed, and experimental media (Hank’s balanced salt solution, Sigma-Aldrich) was added. […] Plates were incubated for 1 h, then read on a fluorescent plate reader (Thermo Fisher). Experiments were conducted in triplicate. […] Cells were plated to confluence in 48-well PDL-coated plates the day prior to the experiment. For experiments, media was removed, cells were rinsed with phosphate buffered saline (PBS), and incubated with or without compounds or desipramine (10 nM to 10 μM, non-specific uptake measured by addition of 100 μM desipramine) for ten minutes at 37 °C. Dopamine (1 μM total concentration with 200 nM ^3H-dopamine tracer) was added and uptake proceeded for 10 min at 37 °C. Cells were then rinsed three times with PBS, lysed with 0.1 N NaOH, and measured via liquid scintillation counting (Beckman Coulter, Brea, CA, USA). Finally, each selected compound was visualized with high-content imaging using the Array Scan VTI HCS (Cellomics). Cells were seeded to 80% confluence in PDL-coated, glass-bottom 96-well plates. Media was removed and DMEM without phenol red with or without compounds or desipramine (10 nM to 10 μM) was added. Following a one-hour incubation, cells were imaged. Forty-nine contiguous fields per well were taken and total fluorescence in the green channel was reported.
Figure 1 Plate reader-based fluorescent assay using human NET in a validation assay of the scree-ning strategy using the known NET inhibitor desipramine as a positive control. […] (C) Finally, uptake was visualized using high content imaging with the Array Scan VTI HCS (Cellomics, Thermo Fisher Scientific, Waltham, MA, USA) to visualize nuclei (stained with DAPI), VMAT2-mCherry, and dye. All experiments were conducted in triplicate and analyzed with nonlinear regression analysis in GraphPad Prism (GraphPad Software, La Jolla, CA, USA). Scale: […].
On to `CCCc1ccc(OC)c(-c2ccc(OC)c(CCC)c2)c1` [Compound H20], for which the “modulation of transport activity in the fluorescent screen (ranking)” value (shortened to “modulation of transport activity”) is “most potent modulators of transport activity”.

As to `C=CCc1cc(Cc2cccc(CC=C)c2OC)ccc1OC` [Compound C4a, 3,3′-Diallyl-2,4′-dimethoxy-diphenyl-methan], the “modulation of transport activity” value is recorded as “most potent modulators of transport activity”.

On to `C=CCc1ccc(OC)c(-c2ccc(OC)c(CC=C)c2)c1` [Compound H16], for which the “modulation of transport activity” value is “most potent modulators of transport activity”.

For the compound `C=CCc1cc(NC(C)=O)c(O)c(-c2ccc(OC)c(CC=C)c2)c1` [Compound H8], the “modulation of transport activity” value was “most potent modulators of transport activity”.

For `C=CCc1ccc(O)c(-c2ccc(OC)c(CC=C)c2)c1` [Compound H11, 4′-O-methylhonokiol], the “modulation of transport activity” value was “most potent modulators of transport activity”.

On to `CC(C)(C)c1ccc(O)c(-c2cc(C(C)(C)C)ccc2O)c1` [Compound M6], for which the “modulation of transport activity” value is “most potent modulators of transport activity”.
